Patent publication US10647713B2 (Nimbus Lakshmi, Inc., priority 2016, dated 2020)

These compounds were tested against human TYK2 (JH2domain-pseudokinase) (Homo sapiens (Human), UniProt P29597) (assay: TYK2 JH2 Domain Binding Assay (KINOMEscan, DiscoveRx)). Conditions: 11-point dilution, duplicate.
Method: Binding constants for compounds of the present invention against the JH2 domain were determined by the following protocol for a KINOMEscan® assay (DiscoveRx). A fusion protein of a partial length construct of human TYK2 (JH2domain-pseudokinase) (amino acids G556 to D888 based on reference sequence NP_003322.3) and the DNA binding domain of NFkB was expressed in transiently transfected HEK293 cells. From these HEK 293 cells, extracts were prepared in M-PER extraction buffer (Pierce) in the presence of Protease Inhibitor Cocktail Complete (Roche) and Phosphatase Inhibitor Cocktail Set II (Merck) per manufacturers' instructions. The TYK2 (JH2domain-pseudokinase) fusion protein was labeled with a chimeric double-stranded DNA tag containing the NFkB binding site (5′-GGGAATTCCC-3′) fused to an amplicon for qPCR readout, which was added directly to the expression extract (the final concentration of DNA-tag in the binding reaction is 0.1 nM).
Streptavidin-coated magnetic beads (Dynal M280) were treated with a biotinylated small molecule ligand for 30 minutes at room temperature to generate affinity resins the binding assays. The liganded beads were blocked with excess biotin and washed with blocking buffer (SeaBlock (Pierce), 1% BSA, 0.05% Tween 20, 1 mM DTT) to remove unbound ligand and to reduce nonspecific binding.
The binding reaction was assembled by combining 16 μl of DNA-tagged kinase extract, 3.8 μl liganded affinity beads, and 0.18 μl test compound (PBS/0.05% Tween 20/10 mM DTT/0.1% BSA/2 μg/ml sonicated salmon sperm DNA)]. Extracts were used directly in binding assays without any enzyme purification steps at a ≥10,000-fold overall stock dilution (final DNA-tagged enzyme concentration <0.1 nM). Extracts were loaded with DNA-tag and diluted into the binding reaction in a two step process. First extracts were diluted 1:100 in 1× binding buffer (PBS/0.05% Tween 20/10 mM DTT/0.1% BSA/2 μg/ml sonicated salmon sperm DNA) containing 10 nM DNA-tag. This dilution was allowed to equilibrate at room temperature for 15 minutes and then subsequently diluted 1:100 in 1× binding buffer. Test compounds were prepared as 111× stocks in 100% DMSO. Kds were determined using an 11-point 3-fold compound dilution series with three DMSO control points. All compounds for Kd measurements are distributed by acoustic transfer (non-contact dispensing) in 100% DMSO. The compounds were then diluted directly into the assays such that the final concentration of DMSO was 0.9%. All reactions performed in polypropylene 384-well plates. Each was a final volume of 0.02 mL. Assays were incubated with shaking for 1 hour at room temperature. Then the beads were pelleted and washed with wash buffer (1×PBS, 0.05% Tween 20) to remove displaced kinase and test compound. The washed based were re-suspended in elution buffer (1×PBS, 0.05% Tween 20, 0.5 μM non-biotinylated affinity ligand) and incubated at room temperature with shaking for 30 minutes. The kinase concentration in the eluates was measured by qPCR. qPCR reactions were assembled by adding 2.5 μL of kinase eluate to 7.5 μL of qPCR master mix containing 0.15 μM amplicon primers and 0.15 μM amplicon probe. The qPCR protocol consisted of a 10 minute hot start at 95° C., followed by 35 cycles of 95° C. for 15 seconds, 60° C. for 1 minute.
Test compounds were prepared as 111× stocks in 100% DMSO. Kds were determined using an 11-point 3-fold compound dilution series with three DMSO control points. All compounds for Kd measurements are distributed by acoustic transfer (non-contact dispensing) in 100% DMSO. The compounds were then diluted directly into the assays such that the final concentration of DMSO was 0.9%. The Kds were determined using a compound top concentration of 30,000 nM. Kd measurements were performed in duplicate.
Binding constants (Kds) were calculated with a standard dose-response curve using the Hill equation: […]
The Hill Slope was set to −1. […]

human TYK2 (JH2domain-pseudokinase), sequence (P29597 556-888): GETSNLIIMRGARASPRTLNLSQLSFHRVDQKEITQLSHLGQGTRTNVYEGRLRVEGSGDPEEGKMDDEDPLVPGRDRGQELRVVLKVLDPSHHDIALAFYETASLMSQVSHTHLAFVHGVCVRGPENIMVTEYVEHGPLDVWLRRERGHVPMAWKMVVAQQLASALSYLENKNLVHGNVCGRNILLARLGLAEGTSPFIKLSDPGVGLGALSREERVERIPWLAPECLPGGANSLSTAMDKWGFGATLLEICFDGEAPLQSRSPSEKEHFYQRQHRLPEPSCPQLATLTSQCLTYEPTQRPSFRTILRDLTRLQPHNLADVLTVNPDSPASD

Compound | Kd
CN(c1cc(-c2cnn(C)c2)ccc1Nc1cc(NC(=O)[C@@H]2C[C@@H]2F)nc2[nH]c(C(F)F)nc12)S(C)(=O)=O (stereo in doubt) [Compound I-207] | 0.1 to 0.5 nM
CN(c1cc(-c2cnn(C)c2)ccc1Nc1cc(NC(=O)[C@@H]2C[C@@H]2F)nc2[nH]c(C(F)F)nc12)S(C)(=O)=O (stereo in doubt) [I-235, (1S,2S)—N-(2-(difluoromethyl)-7-((4-(1-methyl-1H-pyrazol-4-yl)-2-(N-methylmethylsulfonamido)phenyl)amino)-3H-imidazo[4,5-b]pyridin-5-yl)-2-fluorocyclopropane-1-carboxamide] | < 0.1 nM
Cc1nc2c(Nc3ccc(C4CCCOC4)cc3S(C)(=O)=O)cc(NC(=O)C3CC3)nc2[nH]1 (stereo in doubt) [I-254, (R)—N-(2-methyl-7-((2-(methylsulfonyl)-4-(tetrahydro-2H-pyran-3-yl)phenyl)amino)-3H-imidazo[4,5-b]pyridin-5-yl)cyclopropanecarboxamide] | 0.5 to 1 nM
Cc1nc2c(Nc3ccc([C@@H]4CCCCO4)cc3S(C)(=O)=O)cc(NC(=O)[C@@H]3CC3(F)F)nc2[nH]1 (stereo in doubt) [I-324, 2,2-difluoro-N-(2-methyl-7-((2-(methylsulfonyl)-4-((R)-tetrahydro-2H-pyran-2-yl)phenyl)amino)-3H-imidazo[4,5-b]pyridin-5-yl)cyclopropane-1-carboxamide] | 1 to 10 nM
CN=S(C)(=O)c1ccccc1Nc1cc(NC(=O)C2CC2)nc2[nH]c(C)nc12 (stereo in doubt) [I-548, (S)—N-(7-((2-(N,S-dimethylsulfonimidoyl)phenyl)amino)-2-methyl-3H-imidazo[4,5-b]pyridin-5-yl)cyclopropanecarboxamide] | 0.1 to 0.5 nM
Cc1nc2c(Nc3ccc(C4CCCCO4)cc3S(C)(=O)=O)cc(Nc3cc4n(n3)CCOC4)nc2[nH]1 (stereo in doubt) [I-586, (R)—N5-(6,7-dihydro-4H-pyrazolo[5,1-c][1,4]oxazin-2-yl)-2-methyl-N7-(2-(methylsulfonyl)-4-(tetrahydro-2H-pyran-2-yl)phenyl)-3H-imidazo[4,5-b]pyridine-5,7-diamine] | 0.1 to 0.5 nM
CS(=O)(=O)c1cc(C2COCCO2)ccc1Nc1cc(NC(=O)C2CC2)nc2[nH]c(C(F)F)nc12 (stereo in doubt) [I-613, (R)—N-(7-((4-(1,4-dioxan-2-yl)-2-(methylsulfonyl)phenyl)amino)-2-(difluoromethyl)-3H-imidazo[4,5-b]pyridin-5-yl)cyclopropanecarboxamide] | 0.1 to 0.5 nM
CS(=O)(=O)c1cc(C2COCCO2)ccc1Nc1cc(NC(=O)C2CC2)nc2[nH]c(C(F)F)nc12 (stereo in doubt) [I-614, (S)—N-(7-((4-(1,4-dioxan-2-yl)-2-(methylsulfonyl)phenyl)amino)-2-(difluoromethyl)-3H-imidazo[4,5-b]pyridin-5-yl)cyclopropanecarboxamide] | 0.1 to 0.5 nM
COc1c(Nc2cc(Nc3cc(C)c(F)cn3)nc3[nH]cnc23)cccc1-c1ncn(C)n1 [I-2, N5-(5-fluoro-4-methylpyridin-2-yl)-N7-(2-methoxy-3-(1-methyl-1H-1,2,4-triazol-3-yl)phenyl)-3H-imidazo[4,5-b]pyridine-5,7-diamine] | 0.5 to 1 nM
COc1c(Nc2cc(Nc3cc(C)nc(C)n3)nc3[nH]cnc23)cccc1-c1ncn(C)n1 [I-3, N5-(2,6-dimethylpyrimidin-4-yl)-N7-(2-methoxy-3-(1-methyl-1H-1,2,4-triazol-3-yl)phenyl)-3H-imidazo[4,5-b]pyridine-5,7-diamine] | 0.1 to 0.5 nM
COc1c(Nc2cc(Nc3ccc(C)nn3)nc3[nH]cnc23)cccc1-c1ncn(C)n1 [I-4, N7-(2-methoxy-3-(1-methyl-1H-1,2,4-triazol-3-yl)phenyl)-N5-(6-methylpyridazin-3-yl)-3H-imidazo[4,5-b]pyridine-5,7-diamine] | 0.1 to 0.5 nM
COc1c(Nc2cc(Nc3cc(CO)ccn3)nc3[nH]cnc23)cccc1-c1ncn(C)n1 [I-5, (2-((7-((2-methoxy-3-(1-methyl-1H-1,2,4-triazol-3-yl)phenyl)amino)-3H-imidazo[4,5-b]pyridin-5-yl)amino)pyridin-4-yl)MeOH] | 0.5 to 1 nM
COc1c(Nc2cc(Nc3ccc(N4CCCCC4)cn3)nc3[nH]cnc23)cccc1-c1ncn(C)n1 [I-6, N7-(2-methoxy-3-(1-methyl-1H-1,2,4-triazol-3-yl)phenyl)-N5-(5-(piperidin-1-yl)pyridin-2-yl)-3H-imidazo[4,5-b]pyridine-5,7-diamine] | 0.5 to 1 nM
COc1c(Nc2cc(Nc3ccc(N4CCOCC4)cn3)nc3[nH]cnc23)cccc1-c1ncn(C)n1 [I-7, N7-(2-methoxy-3-(1-methyl-1H-1,2,4-triazol-3-yl)phenyl)-N5-(5-morpholinopyridin-2-yl)-3H-imidazo[4,5-b]pyridine-5,7-diamine] | 0.1 to 0.5 nM
COc1c(Nc2cc(Nc3ccn(C)n3)nc3[nH]cnc23)cccc1-c1ncn(C)n1 [I-8, N7-(2-methoxy-3-(1-methyl-1H-1,2,4-triazol-3-yl)phenyl)-N5-(1-methyl-1H-pyrazol-3-yl)-3H-imidazo[4,5-b]pyridine-5,7-diamine] | 1 to 10 nM

More lines, now with the values ahead:

Kd | Compound
0.1 to 0.5 nM | COc1c(Nc2cc(NC(=O)[C@@H]3C[C@@H]3F)nc3[nH]c(C(F)F)nc23)cccc1-c1ncn(C)n1 (stereo in doubt) [I-213, N-(2-(difluoromethyl)-7-((2-methoxy-3-(1-methyl-1H-1,2,4-triazol-3-yl)phenyl)amino)-3H-imidazo[4,5-b]pyridin-5-yl)-2-fluorocyclopropane-1-carboxamide]
0.5 to 1 nM | COc1c(Nc2cc(NC(=O)C3C[C@@H]3F)nc3[nH]c(C)nc23)cccc1-c1ncn(C)n1 (stereo in doubt) [I-368, 2-fluoro-N-(7-((2-methoxy-3-(1-methyl-1H-1,2,4-triazol-3-yl)phenyl)amino)-2-methyl-3H-imidazo[4,5-b]pyridin-5-yl)cyclopropane-1-carboxamide]
1 to 10 nM | COc1c(Nc2cc(NC(=O)C3C[C@@H]3F)nc3[nH]c(C(F)F)nc23)cccc1-c1ncn(C)n1 (stereo in doubt) [I-374, N-(2-(difluoromethyl)-7-((2-methoxy-3-(1-methyl-1H-1,2,4-triazol-3-yl)phenyl)amino)-3H-imidazo[4,5-b]pyridin-5-yl)-2-fluorocyclopropane-1-carboxamide]
0.1 to 0.5 nM | COc1c(Nc2cc(NC(=O)C3CC3)nc3[nH]cnc23)cccc1-c1ncn(C)n1 [I-1, N-(7-((2-methoxy-3-(1-methyl-1H-1,2,4-triazol-3-yl)phenyl)amino)-3H-imidazo[4,5-b]pyridin-5-yl)cyclopropanecarboxamide]
> 10 nM | COc1c(Nc2cc(NC(=O)C3CC3)nc3[nH]c(C4CC4)nc23)cccc1-c1ncn(C)n1 [I-9, N-(2-cyclopropyl-7-((2-methoxy-3-(1-methyl-1H-1,2,4-triazol-3-yl)phenyl)amino)-3H-imidazo[4,5-b]pyridin-5-yl)cyclopropanecarboxamide]
1 to 10 nM | COc1c(Nc2cc(NC(=O)C3CC3)nc3[nH]c(CO)nc23)cccc1-c1ncn(C)n1 [I-10, N-(2-(hydroxymethyl)-7-((2-methoxy-3-(1-methyl-1H-1,2,4-triazol-3-yl)phenyl)amino)-3H-imidazo[4,5-b]pyridin-5-yl)cyclopropanecarboxamide]
1 to 10 nM | COc1nc2c(Nc3cccc(-c4ncn(C)n4)c3OC)cc(NC(=O)C3CC3)nc2[nH]1 [I-11]
0.1 to 0.5 nM | COc1c(Nc2cc(NC(=O)C3CC3)nc3[nH]c(C(F)F)nc23)cccc1-c1ncn(C)n1 [I-13, N-(2-(difluoromethyl)-7-((2-methoxy-3-(1-methyl-1H-1,2,4-triazol-3-yl)phenyl)amino)-3H-imidazo[4,5-b]pyridin-5-yl)cyclopropanecarboxamide]
